# Data as given in patent US8222246B2, “Substituted isoxazoles” (Hoffmann-La Roche Inc., priority 2009, dated 2012).
# Biological target: T1, GABA A α5 (α5β3γ2) (Homo sapiens, UniProt P18507+P31644)
# T1 construct: expressed in transfected cells; host or cells: HEK293 (transiently transfected), membranes
# Test: [3H]flumazenil competition binding assay, human GABA A α5 receptors in HEK293 cells
# Conditions: competition for [3H]flumazenil (0.5 nM); HEK293 cells expressing human (transiently transfected) receptors; means of two determinations; read-out: hKi GABA A α5
# Procedure: Membrane Preparation and Binding Assay
# The affinity of compounds at GABA A receptor subtypes was measured by competition for [3H]flumazenil (85 Ci/mmol; Roche) binding to HEK293 cells expressing rat (stably transfected) or human (transiently transfected) receptors of composition α1β3γ2, α2β3γ2, α3β3γ2 and α5β3γ2.
# Cell pellets were suspended in Krebs-tris buffer (4.8 mM KCl, 1.2 mM CaCl2, 1.2 mM MgCl2, 120 mM NaCl, 15 mM Tris; pH 7.5; binding assay buffer), homogenized by polytron for ca. 20 sec on ice and centrifuged for 60 min at 4° C. (50000 g; Sorvall, rotor: SM24=20000 rpm). The cell pellets were resuspended in Krebs-tris buffer and homogenized by polytron for ca. 15 sec on ice. Protein was measured (Bradford method, Bio-Rad) and aliquots of 1 mL were prepared and stored at −80° C.
# Radioligand binding assays were carried out in a volume of […] (96-well plates) which contained […] of cell membranes, [3H]flumazenil at a concentration of 1 nM for α1, α2, α3 subunits and 0.5 nM for α5 subunits and the test compound in the range of […]. Nonspecific binding was defined by 10^−5 M diazepam and typically represented less than 5% of the total binding. Assays were incubated to equilibrium for 1 hour at 4° C. and harvested onto GF/C uni-filters (Packard) by filtration using a Packard harvester and washing with ice-cold wash buffer (50 mM Tris; pH 7.5). After drying, filter-retained radioactivity was detected by liquid scintillation counting. Ki values were calculated using Excel-Fit (Microsoft) and are the means of two determinations.
# Representative test results, obtained by the above described assay measuring binding affinity to HEK293 cells expressing human (h) receptors, are shown in table 1 below.
row,SMILES,Ki [nM]
1,"Cn1cc(NC(=O)c2ccc(OCc3c(-c4ccc(F)cc4)noc3CO)nc2)cn1 [Example 16, 6-[3-(4-Fluoro-phenyl)-5-hydroxymethyl-isoxazol-4-ylmethoxy]-N-(1-methyl-1H-pyrazol-4-yl)-nicotinamide]",0.9
2,"O=C(NC1CCOC1)c1ccc(OCc2c(-c3ccccn3)noc2CO)nc1 (centres unmarked) [Example 45, 6-(5-Hydroxymethyl-3-pyridin-2-yl-isoxazol-4-ylmethoxy)-N-(tetrahydrofuran-3-yl)-nicotinamide]",1.8
3,"O=C(c1ccc(OCc2c(-c3ccc(F)cn3)noc2CO)nc1)N1CCS(=O)(=O)CC1 [Example 56, (1,1-Dioxo-1,6-thiomorpholin-4-yl)-{6-[3-(5-fluoro-pyridin-2-yl)-5-hydroxymethyl-isoxazol-4-ylmethoxy]-pyridin-3-yl}-methanone]",13.5
4,"CCCCc1noc(CO)c1COc1ccc(C(=O)NCC(F)(F)F)cn1 [Example 51, 6-(3-Butyl-5-hydroxymethyl-isoxazol-4-ylmethoxy)-N-(2,2,2-trifluoroethyl)-nicotinamide]",10.2
5,"O=C(NC1CC1)c1ccc(OCc2c(-c3ccc(F)cc3)noc2CO)nc1 [Example 8, N-Cyclopropyl-6-[3-(4-fluoro-phenyl)-5-hydroxymethyl-isoxazol-4-ylmethoxy]-nicotinamide]",1.7
6,"O=C(NC1CCOCC1)c1ccc(OCc2c(-c3ccc(F)cc3)noc2CO)nc1 [Example 5, 6-[3-(4-Fluoro-phenyl)-5-hydroxymethyl-isoxazol-4-ylmethoxy]-N-(tetrahydro-pyran-4-yl)-nicotinamide]",1.3
7,"CC[C@@H](CO)NC(=O)c1ccc(OCc2c(-c3ccc(F)cc3)noc2CO)nc1 [Example 15, 6-[3-(4-Fluoro-phenyl)-5-hydroxymethyl-isoxazol-4-ylmethoxy]-N-((S)-1-hydroxymethyl-propyl)-nicotinamide]",0.6
8,"O=C(c1ccc(OCc2c(-c3ccc(F)cc3)noc2CO)nc1)N1CCS(=O)(=O)CC1 [Example 3, (1,1-Dioxo-1,6-thiomorpholin-4-yl)-{6-[3-(4-fluoro-phenyl)-5-hydroxymethyl-isoxazol-4-ylmethoxy]-pyridin-3-yl}-methanone]",8.6

# Further lines, results first:
row,Ki [nM],SMILES
1,1.1,"O=C(NN1CCOCC1)c1ccc(OCc2c(-c3ccc(F)c(F)c3)noc2CO)nc1 [Example 41, 6-[3-(3,4-Difluoro-phenyl)-5-hydroxymethyl-isoxazol-4-ylmethoxy]-N-morpholin-4-yl-nicotinamide]"
2,1.1,"CC(C)NC(=O)c1ccc(OCc2c(-c3ccc(F)cc3)noc2CO)nc1 [Example 4, 6-[3-(4-Fluoro-phenyl)-5-hydroxymethyl-isoxazol-4-ylmethoxy]-N-isopropyl-nicotinamide]"
3,4.5,"O=C(NN1CCCC1)c1ccc(OCc2c(-c3ccc(F)c(F)c3)noc2CO)nc1 [Example 42, 6-[3-(3,4-Difluoro-phenyl)-5-hydroxymethyl-isoxazol-4-ylmethoxy]-N-pyrrolidin-1-yl-nicotinamide]"
4,7.7,"COCCNC(=O)c1ccc(OCc2c(-c3ccc(F)c(F)c3)noc2CO)nc1 [Example 36, 6-[3-(3,4-Difluoro-phenyl)-5-hydroxymethyl-isoxazol-4-ylmethoxy]-N-(2-methoxy-ethyl)-nicotinamide]"
5,1.5,"CC(C)NC(=O)c1ccc(OCc2c(-c3ccc(F)c(F)c3)noc2CO)nc1 [Example 28, 6-[3-(3,4-Difluoro-phenyl)-5-hydroxymethyl-isoxazol-4-ylmethoxy]-N-isopropyl-nicotinamide]"
6,2.1,"Cn1cc(NC(=O)c2ccc(OCc3c(-c4ccc(F)c(F)c4)noc3CO)nc2)cn1 [Example 39, 6-[3-(3,4-Difluoro-phenyl)-5-hydroxymethyl-isoxazol-4-ylmethoxy]-N-(1-methyl-1H-pyrazol-4-yl)-nicotinamide]"
